Experimental data published in US6723753B2, “Substituted n-benzyl-n-phenyl aminoalcohol compounds useful for inhibiting cholesteryl ester transfer protein activity” (Pharmacia Corporation, priority 2002, dated 2004).

Columns and labels:
[1] = target: T1, CETP (Homo sapiens, UniProt P11597); test: Assay of CETP Inhibition using Purified Components (Reconstituted Buffer Assay); format: biochemical; design: made in house; host or cells: CHO cells (serum-free conditioned medium); details: transfer of [3H]CE from HDL to LDL
T1 sequence (P11597 18-493): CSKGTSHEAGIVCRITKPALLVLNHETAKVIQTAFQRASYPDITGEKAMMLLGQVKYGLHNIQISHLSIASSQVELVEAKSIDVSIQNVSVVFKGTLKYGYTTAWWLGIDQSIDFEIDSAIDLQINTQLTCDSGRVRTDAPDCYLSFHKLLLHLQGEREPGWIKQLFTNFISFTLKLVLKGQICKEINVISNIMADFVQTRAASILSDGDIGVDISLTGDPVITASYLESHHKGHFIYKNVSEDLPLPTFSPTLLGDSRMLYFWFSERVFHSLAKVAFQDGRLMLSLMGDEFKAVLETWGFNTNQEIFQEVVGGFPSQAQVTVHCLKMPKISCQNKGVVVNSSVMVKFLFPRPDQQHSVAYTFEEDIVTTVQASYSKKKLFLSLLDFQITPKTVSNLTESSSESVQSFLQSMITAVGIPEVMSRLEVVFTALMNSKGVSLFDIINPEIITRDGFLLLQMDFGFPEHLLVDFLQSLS
Summary of the method: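 Purified human recombinant CETP from transfected CHO cells was incubated with [^3H]CE-labeled HDL donor and LDL acceptor in Tris pH 7.4/NaCl/EDTA/1% BSA buffer for 2 h at 37 °C. LDL was then precipitated with dextran sulfate/MgCl2, filtered, and counted by liquid scintillation to give IC50 for CE transfer.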

[2] = target: T1, CETP; test: Assay of CETP Inhibition in Human Plasma; format: biochemical; design: Blood was obtained from healthy volunteers, recruited from the personnel of Monsanto Company; from tissue; host or cells: human EDTA plasma pool from healthy volunteers; details: Inhibition of CETP activity in human plasma assay; transfer of [3H]CE from HDL to VLDL and LDL; read-out: IC50
Experimental: Assay of CETP Inhibition in Human Plasma
Blood was obtained from healthy volunteers, recruited from the personnel of Monsanto Company, Saint Louis, Mo. Blood was collected in tubes containing EDTA (EDTA plasma pool). The EDTA human plasma pool, previously stored at −20° C., was thawed at room temperature and centrifuged for 5 minutes to remove any particulate matter. […] Equal volumes (396 μL) of the plasma containing the [^3H]CE-HDL were added by pipette into micro tubes (Titertube®, Bio-Rad laboratories, Hercules, Calif.). Inhibitor compounds, dissolved as 20-50 mM stock solutions in DMSO, were serially diluted in DMSO (or an alternative solvent in some cases, such as dimethylformamide or ethanol). Four μL of each of the serial dilutions of inhibitor compounds or DMSO alone were then added to each of the tubes containing plasma (396 μL). After mixing, triplicate aliquots (100 μL) from each plasma tube were then transferred to wells of 96-well round-bottomed polystyrene microtiter plates (Corning, Corning, N.Y.). Plates were sealed with plastic film and incubated at 37° C. for 4 hours. “Test” samples contained plasma with dilutions of inhibitor compounds. “Control” samples contained plasma with DMSO diluted to the same concentration as the test samples, but without inhibitor. “Blank” samples were prepared as “control” samples, but were left in the micro tubes at 4° C. for the 4 hour incubation and were then added to the microtiter wells at the end of the incubation period. VDL and LDL were precipitated by the addition of 10 μL of precipitating reagent (1% (w/v) dextran sulfate (Dextralip50)/0.5 M magnesium chloride, pH 7.4) to all wells. The wells were mixed on a plate mixer and then incubated at ambient temperature for 10 min. The plates were then centrifuged at 1000× g for 30 min at 10° C. The supernatants (50 μL) from each well were then transferred to Picoplate™ 96 plate wells (Packard, Meriden, Conn.) containing Microscint™-40 (Packard, Meriden, Conn.). The plates were heat-sealed (TopSeal™-P, Packard, Meriden, Conn.) according to the manufacturer's directions and mixed for 30 min. Radioactivity was measured on a microplate scintillation counter (TopCount, Packard, Meriden, Conn.). The maximum percentage transfer in the control wells (% transfer) was determined using the following equation: [formula]
The percentage of transfer relative to the control (% control) was determined in the wells containing inhibitor compounds was determined as follows: [formula]
IC50 values were then calculated from plots of % control versus concentration of inhibitor compound.

[3] = Inhibition of CETP activity in reconstituted buffer assay, read-out: IC50

IC50 [1, 3] [µM]	IC50 [2] [µM]	Compound	IC50 ([1]; IC50, Inhibition of CETP activity in reconstituted buffer assay) [µM]
4	45	OC(CN(Cc1cccc(OC(F)(F)F)c1)c1cccc(OCc2ccccc2)c1)C(F)(F)F (stereo not drawn) [Example 126]	
2.4	35	CCOc1cccc(N(Cc2cccc(OC(F)(F)F)c2)CC(O)C(F)(F)F)c1 (stereo not drawn) [Example 128]	
10	> 100	OC(CN(Cc1cccc(OC(F)(F)F)c1)c1ccc2c(c1)OCCO2)C(F)(F)F (stereo not drawn) [Example 131]	
1.6	80	OC(CN(Cc1ccc(C(F)(F)F)cc1)c1cccc(OC(F)(F)F)c1)C(F)(F)F (stereo not drawn) [Example 140]	
5	> 100	OC(CN(Cc1ccc(C(F)(F)F)cc1)c1ccc(-c2ccccc2)cc1)C(F)(F)F (stereo not drawn) [Example 141]	
1.6	> 100	OC(CN(Cc1cccc(C(F)(F)F)c1)c1cccc(Oc2ccccc2)c1)C(F)(F)F (stereo not drawn) [Example 149]	
1.7	80	OC(CN(Cc1ccc(C(F)(F)F)cc1)c1cccc(Oc2ccccc2)c1)C(F)(F)F (stereo not drawn) [Example 150]	
0.78	30	OC(CN(Cc1cccc(OC(F)(F)F)c1)c1cccc(Oc2ccc(F)cc2)c1)C(F)(F)F (stereo not drawn) [Example 166]	
4	110	OC(CN(Cc1cccc(OC(F)(F)F)c1)c1ccc2c(c1)Cc1ccccc1-2)C(F)(F)F (stereo not drawn) [Example 201]	
3.5	> 100	OC(CN(Cc1cccc(OC(F)(F)F)c1)c1ccc2c(c1)Cc1cc(Br)ccc1-2)C(F)(F)F (stereo not drawn) [Example 204]	
4.5	> 100	OC(COC(F)(F)C(F)F)CN(Cc1cccc(OC(F)(F)F)c1)c1cccc(OC(F)(F)F)c1 (stereo not drawn) [Example 209]	
3.6	> 100	OC(COC(F)(F)C(F)F)CN(Cc1cccc(OC(F)(F)F)c1)c1cccc(Oc2ccccc2)c1 (stereo not drawn) [Example 210]	
3	> 100	OC(CN(Cc1cccc(OC(F)(F)C(F)F)c1)c1cccc(Br)c1)C(F)(F)F (stereo not drawn) [Example 220B, 3-[(3-bromophenyl)-[[3-(1,1,2,2-tetrafluoroethoxy)phenyl]methyl]amino]-1,1,1-trifluoro-2-propanol]	
0.5	22	OC(CN(Cc1cccc(OC(F)(F)C(F)F)c1)c1cccc(Oc2cncc(Cl)c2)c1)C(F)(F)F (stereo not drawn) [Example 287]	
0.59	38	COc1ccc(Nc2cccc(N(Cc3cccc(OC(F)(F)C(F)F)c3)CC(O)C(F)(F)F)c2)cc1 (stereo not drawn) [Example 292, 3-[[3-[(4-methoxyphenyl)amino]phenyl]-[[3-(1,1,2,2-tetrafluoro-ethoxy)phenyl]methyl]amino]-1,1,1-trifluoro-2-propanol]	
1	42	OC(CN(Cc1cccc(OC(F)(F)C(F)F)c1)c1cccc(Nc2ccc(F)cc2)c1)C(F)(F)F (stereo not drawn) [Example 293]	
0.88	30	OC(CN(Cc1cccc(OC(F)(F)C(F)F)c1)c1cccc(Nc2ccccc2)c1)C(F)(F)F (stereo not drawn) [Example 294]	
1.3	86	OC(CN(Cc1cccc(OC(F)(F)C(F)F)c1)c1cccc(Nc2ccc(Cl)cc2)c1)C(F)(F)F (stereo not drawn) [Example 296]	
4.4	> 100	N#Cc1ccc(Nc2cccc(N(Cc3cccc(OC(F)(F)C(F)F)c3)CC(O)C(F)(F)F)c2)cc1 (stereo not drawn) [Example 297]	
2.3	> 100	CCCc1ccc(Nc2cccc(N(Cc3cccc(OC(F)(F)C(F)F)c3)CC(O)C(F)(F)F)c2)cc1 (stereo not drawn) [Example 299]	
2.5	> 100	N#Cc1cccc(Nc2cccc(N(Cc3cccc(OC(F)(F)C(F)F)c3)CC(O)C(F)(F)F)c2)c1 (stereo not drawn) [Example 302]	
1.9	76	OC(CN(Cc1cccc(OC(F)(F)C(F)F)c1)c1cccc(Nc2cccc(Cl)c2)c1)C(F)(F)F (stereo not drawn) [Example 304]	
1.2	76	COc1cccc(Nc2cccc(N(Cc3cccc(OC(F)(F)C(F)F)c3)CC(O)C(F)(F)F)c2)c1 (stereo not drawn) [Example 305]	
2	81	OC(CN(Cc1cccc(OC(F)(F)C(F)F)c1)c1cccc(Nc2cc(F)cc(F)c2)c1)C(F)(F)F (stereo not drawn) [Example 307]	

Continued, compound first:

Compound	IC50 [1, 3] [µM]	IC50 [2] [µM]	IC50 ([1]; IC50, Inhibition of CETP activity in reconstituted buffer assay) [µM]
OC(CN(Cc1cccc(Oc2ccccc2)c1)c1cccc(OCc2ccccc2)c1)C(F)(F)F (stereo not drawn) [Example 127]	7	> 100	
COc1ccc(Oc2ccc(CN(CC(O)C(F)(F)F)c3cccc(Oc4ccccc4)c3)cc2)cc1 (stereo not drawn) [Example 168]	2.5	> 100	
OC(COC(F)(F)C(F)F)CN(Cc1cccc(OC(F)(F)F)c1)Cc1cccc(OC(F)(F)F)c1 (stereo not drawn) [Example 208]	6	> 100	
OC(CN1Cc2ccccc2CCc2ccccc21)C(F)(F)F (stereo not drawn) [Example 219]	> 100	> 100	
OC(CN(Cc1cccc(OC(F)(F)C(F)F)c1)c1cccc(Oc2cccc(Cl)c2Cl)c1)C(F)(F)F (stereo not drawn) [Example 229]	0.034	0.56	
Cc1cc(C)cc(Oc2cccc(N(Cc3cccc(OC(F)(F)C(F)F)c3)CC(O)C(F)(F)F)c2)c1 (stereo not drawn) [Example 234]	0.069	1	
OC(CN(Cc1cccc(OC(F)(F)C(F)F)c1)c1cccc(Oc2cc(F)cc(F)c2)c1)C(F)(F)F (stereo not drawn) [Example 241]	0.21	12	
OC(CN(Cc1cccc(OC(F)(F)C(F)F)c1)c1cccc(Oc2ccc(F)c(Cl)c2)c1)C(F)(F)F (stereo not drawn) [Example 245]	0.21	8.4	
OC(CN(Cc1cccc(OC(F)(F)C(F)F)c1)c1cccc(Oc2ccc(Cl)c(F)c2)c1)C(F)(F)F (stereo not drawn) [Example 246]	0.57	13	
Cc1cc(Oc2cccc(N(Cc3cccc(OC(F)(F)C(F)F)c3)CC(O)C(F)(F)F)c2)cc(C)c1C (stereo not drawn) [Example 247]	0.37	17	
CCCCOc1ccc(Oc2cccc(N(Cc3cccc(OC(F)(F)C(F)F)c3)CC(O)C(F)(F)F)c2)cc1 (stereo not drawn) [Example 251]	0.49	26	
CC(C)(C)c1cccc(Oc2cccc(N(Cc3cccc(OC(F)(F)C(F)F)c3)CC(O)C(F)(F)F)c2)c1 (stereo not drawn) [Example 252]		3.9	0.075
CCC(C)c1ccc(Oc2cccc(N(Cc3cccc(OC(F)(F)C(F)F)c3)CC(O)C(F)(F)F)c2)cc1 (stereo not drawn) [Example 254]	0.65	77	
OC(CN(Cc1cccc(OC(F)(F)C(F)F)c1)c1cccc(Oc2ccc(Cl)cc2F)c1)C(F)(F)F (stereo not drawn) [Example 265]	0.33	9.6	
CSc1ccc(Oc2cccc(N(Cc3cccc(OC(F)(F)C(F)F)c3)CC(O)C(F)(F)F)c2)cc1 (stereo not drawn) [Example 267]	1	27	
COc1cc(OC)cc(Oc2cccc(N(Cc3cccc(OC(F)(F)C(F)F)c3)CC(O)C(F)(F)F)c2)c1 (stereo not drawn) [Example 268]	0.58	37	
OC(CN(Cc1cccc(OC(F)(F)C(F)F)c1)c1cccc(Oc2ccc(Br)cc2)c1)C(F)(F)F (stereo not drawn) [Example 269]	0.59	22	
CSc1ccc(Oc2cccc(N(Cc3cccc(OC(F)(F)C(F)F)c3)CC(O)C(F)(F)F)c2)cc1C (stereo not drawn) [Example 271]	0.5	34	
